Counter-ions that a name gives are not always drawn.

Sequence of human FLAP (P20292 whole entry): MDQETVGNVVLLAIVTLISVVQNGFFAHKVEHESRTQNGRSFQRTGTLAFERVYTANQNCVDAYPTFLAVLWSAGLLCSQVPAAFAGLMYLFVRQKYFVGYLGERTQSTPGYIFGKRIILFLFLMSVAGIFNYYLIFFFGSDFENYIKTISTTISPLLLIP

One assay addresses human FLAP (Homo sapiens (Human), UniProt P20292). In words: FLAP binding assay (HTRF format). The note with it: Table 6 (additional runs), human FLAP wild type. The method in brief: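 Averaged over two plates (duplicate wells per plate); output given as HTRF ratio.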
`CNS(=O)(=O)c1ccccc1-c1ccc(-c2cnc(N)cn2)c(F)c1` [Example 15, 4′-(5-Aminopyrazin-2-yl)-3′-fluoro-N-methylbiphenyl-2-sulfonamide] displayed a Ki of 11.1 nM.

As for `Nc1cnc(-c2ccc(-c3ccccc3S(=O)(=O)N[C@@H]3c4ccccc4C[C@@H]3O)cc2F)cn1` [Example 161, 4′-(5-aminopyrazin-2-yl)-3′-fluoro-N-((1R,2S)-2-hydroxy-2,3-dihydro-1H-inden-1-yl)-[1,1′-biphenyl]-2-sulfonamide], affinity was put at a Ki of 0.4 nM.

Compound `CC(C)(C)NS(=O)(=O)c1ccccc1-c1ccc(-c2cnc(N)cn2)c(F)c1` [Example 4, 4′-(5-Aminopyrazin-2-yl)-N-(tert-butyl)-3′-fluoro-[1,1′-biphenyl]-2-sulfonamide] came in with a Ki of 0.4 nM.

The compound `Nc1cnc(-c2ccc(-c3ccccc3S(=O)(=O)N[C@H]3CCCC[C@@H]3O)cc2F)cn1` (racemic) [Example 120, racemic (trans)-4′-(5-Aminopyrazin-2-yl)-3′-fluoro-N-(2-hydroxycyclohexyl)biphenyl-2-sulfonamide] showed a Ki of 1.1 nM.

`CC(CO)(CO)NS(=O)(=O)c1ccccc1-c1ccc(-c2cnc(N)nc2)c(F)c1` [Example 255, 4′-(2-Aminopyrimidin-5-yl)-3′-fluoro-N-[2-hydroxy-1-(hydroxymethyl)-1-methylethyl]biphenyl-2-sulfonamide] yielded an inhibitory constant (Ki) of 8.1 nM.

Compound `Nc1cnc(-c2ccc(-c3ccccc3Sc3ccnc(N)n3)cc2F)cn1` [Example 242, 4-{[4′(5-Aminopyrazin-2-yl)-3′-fluorobiphenyl-2-yl]sulfanyl}pyrimidin-2-amine hydrochloride] gave a Ki of 0.7 nM.

`Nc1cnc(-c2ccc(-c3ccccc3CS(=O)(=O)N3CCC(N)CC3)cc2F)cn1` [Example 229, 5-(2′-{[(4-Aminopiperidin.-1-yl)sulfonyl]methyl}-3-fluorobiphenyl-4-yl)pyrazin-2-amine hydrochloride] returned a Ki of 1070 nM.

Take `Nc1cnc(-c2ccc(-c3ccccc3S(=O)(=O)N3CC(F)(F)C3)cc2F)cn1` [Example 52, 5-{2′-[(3,3-Difluoroazetidin-1-yl)sulfonyl]-3-fluorobiphenyl-4-yl}pyrazin-2-amine]: the affinity corresponds to a Ki of 3.7 nM.

Compound `CC(C)CS(=O)(=O)c1ccccc1-c1ccc(-c2cnc(N)cn2)c(F)c1` [Example 193, 5-{3-Fluoro-2′-[(2-methylpropyl)sulfonyyl]iphenyl-4-yl}pyrazin-2-amine] displayed a Ki of 30.9 nM.

The compound `Nc1cnc(-c2ccc(-c3ccccc3Sc3ncccn3)cc2F)cn1` [Example 213, 5-[3-Fluoro-2′-(pyrimidin-2-ylsulfanyl)biphenyl-4-yl]pyrazin-2-amine hydrochloride] had a Ki of 2.4 nM.

Regarding `CS(=O)(=O)N1CCN(S(=O)(=O)c2ccccc2-c2ccc(-c3cnc(N)cn3)c(F)c2)CC1` [Example 56, 5-(3-Fluoro-2′-{[4-(methylsulfonyl)piperazin-1-yl]sulfonyl}biphenyl-4-yl)pyrazin-2-amine], affinity was put at a Ki of 8.8 nM.

With `CC(C)(C)[C@H](CO)NS(=O)(=O)c1ccccc1-c1ccc(-c2cnc(N)cn2)c(F)c1` [Example 150, (R)-4′-(5-aminopyrazin-2-yl)-3′-fluoro-N-(1-hydroxy-3,3-dimethylbutan-2-yl)-[1,1′-biphenyl]-2-sulfonamide], the Ki was 1.5 nM.

The assay is the same for the next values; noted with them: human FLAP wild type, Table 6 (additional runs).
In turn, `N#Cc1cccnc1COc1ccccc1-c1ccc(-c2cnc(N)cn2)c(F)c1` [Example 531, 2-({[4′-(5-Aminopyrazin-2-yl)-3′-fluorobiphenyl-2-yl]oxy}methyl)pyridine-3-carbonitrile] yielded a Ki of 8.5 nM.

For the compound `CC(C)(C)NC(=O)c1ccccc1-c1ccc(-c2cnc(N)cn2)c(F)c1` [Example 501, 4′-(5-Aminopyrazin-2-yl)-N-tert-butyl-3′-fluorobiphenyl-2-carboxamide], the Ki amounted to 359 nM.

Still in this assay, the particulars now being: human FLAP wild type, a calculated value of 0.000 indicates Ki less than 1 nM.
Take `Nc1cnc(-c2ccc(-c3ccccc3S(=O)(=O)N[C@@H]3c4ccccc4C[C@@H]3O)cc2F)cn1` [Example 161, 4′-(5-aminopyrazin-2-yl)-3′-fluoro-N-((1R,2S)-2-hydroxy-2,3-dihydro-1H-inden-1-yl)-[1,1′-biphenyl]-2-sulfonamide]: the Ki is less than 1 nM.
